The source made the active and inactive calls. The calls are words filed in the database; no cut-off is given here.
Key:
[1] = system: NCI-H23; test: Antiproliferative activity against human NCI-H23 cells expressing KRAS G12C mutant assessed as relative cell viability at 30 nM incubated for 72 hrs in presence of MK-2206 by CCK-8 assay; format: functional; conditions: read-out: Activity
[2] = system: Mus musculus; test: In vivo PROTAC activity at VHL/KRAS G12C mutant in BALB/c nude mouse xenografted with human MIA PaCa-2 cells assessed as decrease in ERK phosphorylation at 10 to 30 mg/kg, ip administered for 16 days by Western blot analysis; format: functional, organism-based; conditions: dose 10-30 mg/kg, time 16.0 day
[3] = system: NCI-H358; test: Synergistic antiproliferative activity against human NCI-H358 cells expressing KRAS G12C mutant assessed as combination index at 30 nM incubated for 72 hrs in presence of selumetinib by CCK-8 assay; format: functional
[4] = system: Mus musculus; test: In vivo PROTAC activity at VHL/KRAS G12C mutant in BALB/c nude mouse xenografted with human MIA PaCa-2 cells assessed as decrease in KRAS level at 10 to 30 mg/kg, ip administered for 16 days by Western blot analysis; format: functional, organism-based; conditions: dose 10-30 mg/kg, time 16.0 day
[5] = Downregulation of KRAS G12C mutant expression in human NCI-H358 cells assessed as log2 of fold change at 200 nM incubated for 48 hrs by MS-based proteomic analysis; format: functional
[6] = system: NCI-H358; test: Induction of apoptosis in human NCI-H358 cells assessed as viable cells at 30 nM incubated for 48 hrs by Annexin V-FITC staining based flow cytometry analysis (reference value: 91.6 %); format: functional; conditions: read-out: Activity
[7] = system: von Hippel-Lindau disease tumor suppressor/GTPase KRas (Homo sapiens), P01116+P40337 [G12C]; test: PROTAC activity at VHL/KRAS G12C mutant in human NCI-H358 cells assessed as induction of protein degradation at 300 nM incubated for 6 hrs by Western blotting analysis relative to control; format: cell-based
[8] = AUC (0 to infinity) in ICR mouse at 2 mg/kg, iv measured after 24 hrs by LC-MS/MS analysis; format: ADME, organism-based; conditions: in vivo
[9] = Tmax in ICR mouse at 30 mg/kg, ip measured after 24 hrs by LC-MS/MS analysis; format: ADME, organism-based; conditions: in vivo
[10] = system: NCI-H358; test: Induction of apoptosis in human NCI-H358 cells assessed as viable cells at 300 nM incubated for 48 hrs by Annexin V-FITC staining based flow cytometry analysis (reference value: 91.6 %); format: functional; conditions: read-out: Activity
[11] = Half life in ICR mouse at 30 mg/kg, ip measured after 24 hrs by LC-MS/MS analysis; format: ADME, organism-based; conditions: in vivo
[12] = system: MIA PaCa-2; test: Inhibition of cell migration in human MIA PaCa-2 cells incubated for 12 hrs by wound healing assay; format: functional, cell-based; conditions: dose 30-300 nM
[13] = system: von Hippel-Lindau disease tumor suppressor/GTPase KRas (Homo sapiens), P01116+P40337 [G12C]; test: PROTAC activity at VHL/KRAS G12C mutant in human NCI-H358 cells assessed as induction of protein degradation at 100 nM preincubated with MG132 for 6 hrs followed by compound addition and measured after 48 hrs by Western blot analysis; format: cell-based
[14] = system: SW837; test: Antiproliferative activity against human SW837 cells expressing KRAS G12C mutant assessed as relative cell viability at 30 nM incubated for 72 hrs in presence of crizotinib by CCK-8 assay; format: functional; conditions: read-out: Activity
[15] = system: NCI-H358; test: Induction of apoptosis in human NCI-H358 cells assessed as late apoptotic cells at 100 nM incubated for 48 hrs by Annexin V-FITC staining based flow cytometry analysis (reference value: 5.20 %); format: functional
[16] = system: MIA PaCa-2; test: Antitumor activity against human MIA PaCa-2 cells xenografted in BALB/c nude mouse assessed as reduction in percentage of CD31-positive cells at 10 to 30 mg/kg, ip administered for 16 days by immunohistochemical staining analysis; format: functional, organism-based; conditions: dose 10-30 mg/kg, time 16.0 day
[17] = system: NCI-H358; test: Induction of apoptosis in human NCI-H358 cells assessed as necrotic cells at 30 nM incubated for 48 hrs by Annexin V-FITC staining based flow cytometry analysis (reference value: 1.62 %); format: functional
[18] = system: von Hippel-Lindau disease tumor suppressor/GTPase KRas (Homo sapiens), P01116+P40337 [G12C]; test: Protac activity at VHL/KRAS G12C mutant in human NCI-H358 cells assessed as induction of protein degradation at 100 nM preincubated with VH032 for 6 hrs followed by compound addition and measured after 48 hrs by Western blot analysis; format: cell-based
[19] = system: NCI-H358; test: Antiproliferative activity against human NCI-H358 cells expressing KRAS G12C mutant assessed as inhibition of cell growth incubated for 72 hrs by CCK-8 assay; format: functional, cell-based; conditions: NCI-H358, 72 h
[20] = system: von Hippel-Lindau disease tumor suppressor/GTPase KRas (Homo sapiens), P01116+P40337 [G12C]; test: PROTAC activity at VHL/KRAS G12C mutant in human NCI-H358 cells assessed as induction of protein degradation at 100 nM preincubated with AMG510 for 6 hrs followed by compound addition and measured after 48 hrs by Western blotting analysis; format: cell-based
[21] = system: NCI-H358; test: Inhibition of colony formation in human NCI-H358 cells expressing KRAS G12C mutant assessed as reduction in cell number at 30 nM incubated for 14 days in presence of linsitinib by crystal violet staining based analysis; format: functional; conditions: time 14.0 day
[22] = system: NCI-H23; test: Antiproliferative activity against human NCI-H23 cells expressing KRAS G12C mutant assessed as relative cell viability at 30 nM incubated for 72 hrs in presence of daclolisib by CCK-8 assay; format: functional; conditions: read-out: Activity
[23] = system: von Hippel-Lindau disease tumor suppressor/GTPase KRas (Homo sapiens), P01116+P40337 [G12C]; test: PROTAC activity at VHL/KRAS G12C mutant in human NCI-H358 cells assessed as induction of protein degradation at 300 nM incubated for 24 hrs by Western blotting analysis relative to control; format: cell-based
[24] = system: NCI-H358; test: Antiproliferative activity against human NCI-H358 cells expressing KRAS G12C mutant assessed as reduction of cell growth by measuring fold decrease in IC50 incubated for 72 hrs in presence of Linsitinib by CCK-8 assay; format: functional
[25] = Toxicity in ICR mouse assessed as side effects at 2 mg/kg, iv measured after 24 hrs; format: organism-based; conditions: in vivo
[26] = system: SW837; test: Antiproliferative activity against human SW837 cells expressing KRAS G12C mutant assessed as relative cell viability at 30 nM incubated for 72 hrs in presence of selumetinib by CCK-8 assay; format: functional; conditions: read-out: Activity
[27] = system: von Hippel-Lindau disease tumor suppressor/GTPase KRas (Homo sapiens), P01116+P40337 [G12C]; test: PROTAC activity at VHL/KRAS G12C mutant in human NCI-H358 cells assessed as induction of protein degradation at 100 nM incubated for 48 hrs followed by compound washout by Western blotting analysis; format: cell-based
[28] = system: NCI-H358; test: Induction of cell cycle arrest in human NCI-H358 cells assessed as accumulation of cells at G2/M phase incubated for 48 hrs by propidium iodide staining based flow cytometry analysis; format: functional; conditions: dose 30-300 nM
[29] = system: von Hippel-Lindau disease tumor suppressor/GTPase KRas (Homo sapiens), P01116+P40337 [G12C]; test: Protac activity at VHL/KRAS G12C mutant in human MIA PaCa-2 cells assessed as induction of protein degradation in presence of VH032 by Western blot analysis; format: cell-based
[30] = system: SW837; test: Antiproliferative activity against human SW837 cells expressing KRAS G12C mutant assessed as relative cell viability at 30 nM incubated for 72 hrs in presence of daclolisib by CCK-8 assay; format: functional; conditions: read-out: Activity
[31] = system: NCI-H358; test: Antiproliferative activity against human NCI-H358 cells expressing KRAS G12C mutant assessed as relative cell viability at 30 nM incubated for 72 hrs in presence of crizotinib by CCK-8 assay; format: functional; conditions: read-out: Activity

## C=CC(=O)N1CCN(c2nc(=O)n(-c3c(C)ccnc3C(C)C)c3nc(-c4c(F)cccc4OCC4CCN(CCCC(=O)N[C@H](C(=O)N5C[C@H](O)C[C@H]5C(=O)NCc5ccc(-c6scnc6C)cc5)C(C)(C)C)CC4)c(F)cc23)[C@@H](C)C1
[1]
  viability at 0.03 µM: 0.44%
[2]
  Activity: Active
[3]
  CI: <1
[4]
  Activity: Active
[5]
  log2FC: >1
[6]
  viability at 0.03 µM: 89.4%
[7]
  Activity: 50%
[8]
  AUC: 404 ng·h/mL
[9]
  Tmax: 1.17 h
[10]
  viability at 0.3 µM: 79.6%
[11]
  half-life: 3.87 h
[12]
  inhibition: Dose-Dependent Effect
[13]
  Activity: inactive
[14]
  viability at 0.03 µM: 0.36%
[15]
  Activity: 10%
[16]
  Activity: Active
[17]
  Activity: 1.01%
[18]
  Activity: inactive
[19]
  IC50: 0.091 µM
[20]
  Activity: inactive
[21]
  inhibition: Active
[22]
  viability at 0.03 µM: 0.23%
[23]
  Activity: 100%
[24]
  fold change (FC): ~4
[25]
  Activity: Non-Toxic
[26]
  viability at 0.03 µM: 0.2%
[27]
  Activity: Active
[28]
  Activity: Dose-Dependent Effect
[29]
  Activity: inactive
[30]
  viability at 0.03 µM: 0.24%
[31]
  viability at 0.03 µM: 0.43%
